Measured values as given in PubChem BioAssay AID1259407 (Chemical Carcinogenesis Research Information System (CCRIS), 2018).
Active and inactive are the calls of the source. No rule for the calls is given here.

Test system: CCRIS mutagenicity, Ames/micronucleus/aberration tests
Assay: CCRIS mutagenicity studies
[1] = Test System: AMES SALMONELLA TYPHIMURIUM, Strain/Indicator: TA98, Metabolic Activation: NONE, Method: STANDARD PLATE
[2] = Test System: AMES SALMONELLA TYPHIMURIUM, Strain/Indicator: TA100, Metabolic Activation: NONE, Method: STANDARD PLATE
[3] = Test System: AMES SALMONELLA TYPHIMURIUM, Strain/Indicator: TA102, Metabolic Activation: NONE, Method: STANDARD PLATE

CCN(CC)c1ccc(N=Nc2c(Cl)cc([N+](=O)[O-])cc2[N+](=O)[O-])cc1
mutagenic call [1]: inactive; negative
mutagenic call (Test System: AMES SALMONELLA TYPHIMURIUM, Strain/Indicator: TA98, Metabolic Activation: RAT, LIVER, S-9, AROCLOR 1254, Method: STANDARD PLATE): active; positive
mutagenic call [2]: active; positive
mutagenic call (Test System: AMES SALMONELLA TYPHIMURIUM, Strain/Indicator: TA100, Metabolic Activation: RAT, LIVER, S-9, AROCLOR 1254, Method: STANDARD PLATE): active; positive
mutagenic call [3]: inactive; negative
mutagenic call (Test System: AMES SALMONELLA TYPHIMURIUM, Strain/Indicator: TA102, Metabolic Activation: RAT, LIVER, S-9, AROCLOR 1254, Method: STANDARD PLATE): active; positive
mutagenic call (Test System: AMES SALMONELLA TYPHIMURIUM, Strain/Indicator: TA1535, Metabolic Activation: NONE, Method: STANDARD PLATE): inactive; negative
mutagenic call (Test System: AMES SALMONELLA TYPHIMURIUM, Strain/Indicator: TA1535, Metabolic Activation: RAT, LIVER, S-9, AROCLOR 1254, Method: STANDARD PLATE): active; positive
mutagenic call (Test System: AMES SALMONELLA TYPHIMURIUM, Strain/Indicator: TA1537, Metabolic Activation: NONE, Method: STANDARD PLATE): inactive; negative
mutagenic call (Test System: AMES SALMONELLA TYPHIMURIUM, Strain/Indicator: TA1537, Metabolic Activation: RAT, LIVER, S-9, AROCLOR 1254, Method: STANDARD PLATE): active; positive
mutagenic call (Test System: CHINESE HAMSTER V-79, Strain/Indicator: V-79 (HGPRT)/6-THIOGUANINE, Metabolic Activation: NONE): inactive; negative
mutagenic call (Test System: CHINESE HAMSTER V-79, Strain/Indicator: V-79 (HGPRT)/6-THIOGUANINE, Metabolic Activation: RAT, LIVER, S-9, AROCLOR 1254): inactive; negative
mutagenic call (Test System: CHINESE HAMSTER V-79, Strain/Indicator: V-79/8-AZAGUANINE, Metabolic Activation: RAT, LIVER, S-9, AROCLOR 1254): inactive; negative
mutagenic call (Test System: CHINESE HAMSTER V-79, Strain/Indicator: V-79/8-AZAQUANINE, Metabolic Activation: NONE): inactive; negative
mutagenic call (Test System: UDS RAT HEPATOCYTES, Strain/Indicator: THY INCORP, Metabolic Activation: NONE, Method: AUTORADIOGRAPHY): inactive; negative

BrCc1c2ccccc2cc2c1ccc1ccccc12
mutagenic call [1]: active; positive
mutagenic call [2]: active; positive
mutagenic call (Test System: CHINESE HAMSTER V-79, Strain/Indicator: V-79/8-AZAGUANINE, Metabolic Activation: NONE, Method: STANDARD PLATE): active; positive
mutagenic call (Test System: E. COLI, Strain/Indicator: WP2, Metabolic Activation: NONE, Method: FLUCTUATION): active; positive
mutagenic call (Test System: E. COLI, Strain/Indicator: WP2 UVRA, Metabolic Activation: NONE, Method: FLUCTUATION): active; positive
mutagenic call (Test System: UDS HUMAN CELLS, Strain/Indicator: THY INCORP (NON-S-PHASE), Metabolic Activation: NONE, Method: LIQUID SCINTILLATION COUNTING): active; positive
mutagenic call (Test System: UDS HUMAN FIBROBLASTS, Strain/Indicator: THY INCORP (NON-S-PHASE), Metabolic Activation: NONE, Method: AUTORADIOGRAPHY): active; positive
mutagenic call (Test System: UDS RODENT CELLS, Strain/Indicator: THY INCORP (NON-S-PHASE), Metabolic Activation: NONE, Method: LIQUID SCINTILLATION COUNTING): active; positive

S=C=NCCc1ccccc1
mutagenic call [1]: inactive; negative
mutagenic call (Test System: AMES SALMONELLA TYPHIMURIUM, Strain/Indicator: TA98, Metabolic Activation: RAT LIVER S-9, AROCLOR 1254, Method: STANDARD PLATE): active; positive
mutagenic call [2]: inactive; negative
mutagenic call (Test System: AMES SALMONELLA TYPHIMURIUM, Strain/Indicator: TA100, Metabolic Activation: RAT LIVER S-9, AROCLOR 1254, Method: STANDARD PLATE): inactive; negative

CN1CCN(c2c(F)cc3c(=O)c(C(=O)O)cn4c3c2OCN4C)CC1
mutagenic call [3]: active; positive
mutagenic call (Test System: CHINESE HAMSTER V-79, Strain/Indicator: V-79 (HPRT)/6-THIOGUANINE, Metabolic Activation: RAT, LIVER, S-9, AROCLOR 1254): active; positive

NCCNc1cccc2ccccc12
mutagenic call (Test System: CHINESE HAMSTER OVARY, Strain/Indicator: CHO-K1-BH4 (HGPRT)/6-THIOGUANINE, Metabolic Activation: NONE): inactive; negative
mutagenic call (Test System: CHINESE HAMSTER OVARY, Strain/Indicator: CHO-K1-BH4 (HGPRT)/6-THIOGUANINE, Metabolic Activation: S-9): inactive; negative
